Tests used:
P. falciparum 3D7 = assay: 3-day SYBR Green I growth inhibition assay (GIA), strain 3D7; format: cell-based, Plasmodium falciparum; settings: 3-day SYBR Green I GIA, drug-sensitive strain 3D7; read-out: Antiplasmodial activity EC50, 3D7
Description: (§1) A 3-day SYBR Green I inhibition EC50 assay was performed as described previously. Briefly, highly synchronized ring-stage parasites by 5% sorbitol (1% parasitemia and 2% hematocrit) were incubated in a 96-well plate with compounds in a total volume of 200 μL. […] The parasites were cultured for 72 h before SYBR Green I staining as described above. The EC50 was calculated by GraphPad Prism. DHA was used as a positive control, and the final concentration of DMSO was 1%.

P. falciparum Dd2 = assay: 3-day SYBR Green I GIA, multidrug-resistant strain Dd2; format: cell-based, Plasmodium falciparum; settings: 3-day SYBR Green I GIA, multidrug-resistant strain Dd2; read-out: Antiplasmodial activity EC50, Dd2
Description: as §1

HepG2 cells = assay: In vitro cytotoxicity analysis (CellTiter-Glo), HepG2; settings: for EC50: read-out: Cytotoxicity EC50, HepG2, 72 h, CellTiter-Glo
Description: (§2) In all, 1% DMSO was used as a negative control. The inhibition of each drug was normalized to that of the DMSO control. EC50 was calculated by GraphPad Prism. Three independent assays with two technical replicates each time were conducted in this experiment.

293T cells = assay: In vitro cytotoxicity analysis (CellTiter-Glo), 293T; settings: for EC50: read-out: Cytotoxicity EC50, 293T, 72 h, CellTiter-Glo
Description: as §2

| SMILES | EC50 (P. falciparum 3D7) [nM] | EC50 (P. falciparum Dd2) [nM] | Selectivity index for HepG2 (EC50 HepG2/EC50 3D7) (HepG2 cells) | EC50 (HepG2 cells) [nM] | EC50 (293T cells) [nM] | Selectivity index for 293T (EC50 293T/EC50 3D7) (293T cells) |
| --- | --- | --- | --- | --- | --- | --- |
| Cl.O=C(NO)c1cnc(N2CCC3(CCN(Cc4cccs4)C3)C2)nc1 (stereo not shown) [JX21110] | 49.7 ± 1.1 | 35.4 ± 1.3 | 34 | 1690 ± 163 | 4540 ± 323 | 91 |
| Cl.O=C(NO)c1cnc(N2CCC3(CCN(Cc4ccco4)C3)C2)nc1 (stereo not shown) [JX21111] | 45.5 ± 3.3 | 34 ± 2.5 | 24 | 1100 ± 18 | 2260 ± 286 | 50 |
| Cl.O=C(NO)c1cnc(N2CCC3(CCN(Cc4cnc5ccccn45)C3)C2)nc1 (stereo not shown) [JX21122] | 72.9 ± 10 | 74.4 ± 27.4 | > 137 | > 10000 | > 10000 | > 137 |
| Cl.O=C(NO)c1cnc(N2CCC3(CCN(CC4CCCC4)C3)C2)nc1 (stereo not shown) [JX21121] | 92.5 ± 11.3 | 61.6 ± 4.8 | > 108 | > 10000 | > 10000 | > 108 |
| O=C(NO)c1cnc(N2CCN(S(=O)(=O)c3ccc4ccccc4c3)CC2)nc1 [R306465, reference compound] | 23 |  | 38 | 877 | 6600 | 287 |
| Cl.O=C(NO)c1cnc(N2CCC3(CCN(Cc4ccc(-c5ccccc5)cc4)C3)C2)nc1 (stereo not shown) [JX21116] | 21.7 ± 0.2 | 33.9 ± 0.3 | 137 | 2960 ± 152 | 2410 ± 118 | 111 |
| Cl.O=C(NO)c1cnc(N2CCC3(CCN(CC4CCCCC4)C3)C2)nc1 (stereo not shown) [JX21112] | 40.4 ± 4.1 | 28.3 ± 3.8 | 62 | 2490 ± 520 | 607 ± 42 | 15 |
| Cl.O=C(NO)c1cnc(N2CCC3(CCN(Cc4ccc5ncccc5c4)C3)C2)nc1 (stereo not shown) [JX21137] | 7 ± 0.4 | 9.6 ± 0.5 | 179 | 1250 ± 190 | 1770 ± 28 | 254 |
| Cl.O=C(NO)c1cnc(N2CCC3(CCNC3)C2)nc1 (stereo not shown) [JX21131] | 40.4 ± 9.2 | 20.7 ± 2.4 | > 248 | > 10000 | > 10000 | > 248 |
| Cl.O=C(NO)c1cnc(N2CCC3(CCN(Cc4ccsc4)C3)C2)nc1 (stereo not shown) [JX21120] | 18.6 ± 3.9 | 23.2 ± 1.2 | 114 | 2120 ± 165 | 3930 ± 374 | 211 |
| Cl.O=C(NO)c1cnc(N2CCC3(CCN(Cc4cccnc4)C3)C2)nc1 (stereo not shown) [JX21119] | 53.3 ± 0.5 | 39 ± 4 | 120 | 6420 ± 540 | 6998 ± 57 | 131 |

More lines, main results first:

| EC50 (P. falciparum 3D7) [nM] | EC50 (P. falciparum Dd2) [nM] | SMILES | Selectivity index for HepG2 (EC50 HepG2/EC50 3D7) (HepG2 cells) | EC50 (HepG2 cells) [nM] | EC50 (293T cells) [nM] | Selectivity index for 293T (EC50 293T/EC50 3D7) (293T cells) |
| --- | --- | --- | --- | --- | --- | --- |
| 4.2 ± 0.7 | 2.4 ± 0.2 | Cl.Cn1cc(CN2CCC3(CCN(c4ncc(C(=O)NO)cn4)C3)C2)c2ccc(Cl)cc21 (stereo not shown) [JX21102] | 123 | 514 ± 22 | 1670 ± 110 |  |
| 45.9 ± 11.8 | 76.2 ± 9.9 | Cl.O=C(NO)c1cnc(N2CCC3(CCN(Cc4ccnc5ccccc45)C3)C2)nc1 (stereo not shown) [JX21114] | 86 | 3930 ± 537 | 1859 ± 12 | 41 |
| 151 ± 2.7 | 125 ± 4.5 | Cl.Cn1cc(CNC2CCC(Nc3ncc(C(=O)NO)cn3)CC2)c2ccccc21 (stereo not shown) [JX21022] | > 66 | > 10000 | > 10000 | > 66 |
| 13.1 ± 0.6 | 23.6 ± 0.4 | Cl.Cn1cc(CN2CCC(CNc3ncc(C(=O)NO)cn3)CC2)c2ccccc21 [JX21008] | 52 | 688 ± 10 | 253 ± 89 | 19 |
| 17.8 ± 0.5 | 28.6 ± 1.8 | Cl.O=C(NO)c1cnc(N2CCC3(CCN(Cc4ccccc4)C3)C2)nc1 (stereo not shown) [JX21105] | 68 | 1200 ± 68 | 1790 ± 37 | 101 |
| 79.2 ± 2.4 | 44 ± 10 | Cl.Cn1cc(CN2CCC3(CC2)CN(c2ncc(C(=O)NO)cn2)C3)c2ccccc21 [JX21013] | > 126 | > 10000 | > 10000 | > 126 |
| 45.2 ± 1.2 | 38.7 ± 0.6 | Cl.Cn1cc(CN2CCC3(CCCN3c3ncc(C(=O)NO)cn3)CC2)c2ccccc21 [JX21019] | 19 | 875 ± 70 | 1000 ± 208 | 22 |
| 23.4 ± 2.4 | 31.1 ± 4.6 | Cl.Cn1cc(CN2CCC3(CC2)CCN(c2ncc(C(=O)NO)cn2)CC3)c2ccccc21 [JX21010] | 39 | 904 ± 18 | 2210 ± 226 | 94 |
| 73.6 ± 3.5 | 108 ± 5.6 | CN(Cc1cn(C)c2ccccc12)C1CCN(c2ncc(C(=O)NO)cn2)CC1.Cl [JX21005] | 9 | 643 ± 36 | 1980 ± 407 | 27 |
| 2 ± 0.9 | 3.6 ± 0.08 | Cl.Cn1cc(CN2CCC3(CCN(c4ncc(C(=O)NO)cn4)C3)C2)c2ccc(F)cc21 (stereo not shown) [JX21106] | 88 | 178 ± 4 | 402 ± 96 | 198 |
| 67.5 ± 5.3 | 112 ± 13.1 | Cl.O=C(NO)c1cnc(N2CCC3(CCN(Cc4coc5ccccc45)C3)C2)nc1 (stereo not shown) [JX21113] | > 148 | > 10000 | 3020 ± 67 | 45 |
| 10.9 ± 0.8 | 15.3 ± 0.4 | Cl.Cn1cc(CN2CCN(c3ncc(C(=O)NO)cn3)CC2)c2ccccc21 [JX21003] | 4 | 44 ± 7 | 47 ± 21 | 4 |
| 7.9 ± 1 | 3.1 ± 0.3 | Cl.O=C(NO)c1cnc(N2CCC3(CCN(Cc4ccc5ccccc5n4)C3)C2)nc1 (stereo not shown) [JX21143] | 49 | 388 ± 58 | 2910 ± 655 | 368 |
| 32.9 ± 0.9 | 61 ± 0.4 | Cl.Cn1cc(CNC2CCN(c3ncc(C(=O)NO)cn3)CC2)c2ccccc21 [JX21004] | 9 | 294 ± 57 | 519 ± 112 | 16 |
| 6 ± 0.4 | 4.9 ± 0.7 | Cl.O=C(NO)c1cnc(N2CCC3(CCN(Cc4cccc5ccccc45)C3)C2)nc1 (stereo not shown) [JX21125] | 136 | 815 ± 48 | 1240 ± 185 | 207 |
